The conditions of data set [1]: pH 7.4/37° C., Tris/HCl buffer; for deboranation products: 4 weeks; for decomposition: 4 weeks (one month), sodium salts.
Description: Dinucleosides poly(borano)phosphates tri- or penta-sodium salts were dissolved in Tris/HCl buffer (pH 7.4, 0.45 ml), and D2O (0.6 ml). pH 7.4 was then adjusted with HCl and measured with a pH-meter. Final analogue concentration was about 0.02 M. ^31P NMR spectra were recorded during 4 weeks at 3-7 days intervals at 37° C. Percentage of phosphoester hydrolysis of Ap3(β-B)A/Up3(β-B)U is based on absolute integrations of monophosphate signal (2.5 ppm). Percentage of phosphodiester hydrolysis of dinucleoside pentaphosphate is based on absolute integrations of Pα signal of ADP or UDP products.
Thus, ^31P NMR spectra of Up3(β-B)U, 2, and Ap5(β-B)A, 3, tri- and penta-sodium salts, respectively, in Tris/HCl buffer (in H2O), pH 7.4, were recorded during 4 weeks at 1- to 3-day intervals at 37° C.
The conditions of data set [2]: for calculated hydrolysis rate constant: pH 1.4/37° C., KCl/HCl buffer, sodium salts, pseudo first-order fit.
Description: To evaluate chemical stability at pH 1.4, sodium salts of dinucleoside poly(borano)phosphate analogues were dissolved in KCl/HCl buffer (pH 1.4, 0.44 ml) and D2O (0.06 ml). The final pH was then adjusted with HCl and measured with a pH-meter (final concentration 0.016 M). ^31P NMR spectra of Ap3(β-B)A and Up3(β-B)U were recorded during 3 h at 10 min time intervals at 37° C. Number of scans in all experiments was 1200, number of experiments was 17. The hydrolysis rate was determined by measurements of absolute integration of Pα (2.5 ppm) signal as a function of time and was fitted to a pseudo-first-order reaction model.
^31P NMR spectra of Ap5(β-B)A was recorded during 1 h at 10 min time intervals at 37° C. Number of scans in all experiments was 1200, number of experiments was 6. The hydrolysis rate was determined by measurement the absolute intagration of Pβ signal as a function of time and was fitted to a pseudo-first-order reaction model.
Chemical stability under conditions simulating gastric juice (pH 1.4/37° C.) was evaluated with Ap3(β-B)A, 1, Up3(β-B)U, 2, and Ap5(γ-B)A, 3 sodium salts, in KCl/HCl buffer. ^31P NMR spectra was recorded during 3 h at 10 min intervals. […] The intensity changes of the monophosphate ^31P signal with time were fit to a pseudo first-order exponential decay rate equation with respect to 1/2 concentration.
The test system of data set [3] is INS-1 cells. Kind of data set: Glucose-dependent stimulation of insulin secretion in INS-1 cells. To be noted: 6 mM glucose. In kind it is cell-based. The protocol: Compound 2, sodium salt, was tested for insulinotropic effect on insulin-secreting INS-1 cells (Hohmeier et al., 2000). Briefly, the cells were plated at a density of 2×10^5 in 12-well plates in RPMI with 10% fetal calf serum containing 11 mM glucose and maintained at 37° C. in a humidified atmosphere containing 5% CO2 for 2 days. The medium was removed on the third day post-plating and replaced with RPMI containing 3 mM glucose with 10% fetal calf serum. The cells were incubated for an additional 24 hours at 37° C. in a humidified atmosphere containing 5% CO2. On the fourth day post-plating, the medium was removed and replaced with Krebs-Ringer bicarbonate Hepes buffer (pH 7.4) containing 2 mM glucose. The cells were incubated for 30 min, and then the buffer was removed and replaced with Krebs-Ringer bicarbonate Hepes buffer (pH 7.4) with 6 mM glucose containing the test compound at various concentrations. The cells were incubated for 1 hour. Basal insulin secretion was determined by incubating the cells in the presence of buffer with 2 mM glucose. The presence of glucose at 6 and 10 mM stimulated insulin secretion and served as the reference control and positive control, respectively. A positive stimulatory response by the test compound was taken as the response above that elicited by 6 mM glucose.

Data set [4] concerns Diet-Induced Obesity (DIO) mouse model. Kind of data set: Glycemic response of DIO mice in the Oral Glucose Tolerance Test after a single intravenous administration. In kind it is in vivo. The protocol: C57BL/6 male mice (Charles River Canada, St-Constant, Qc, Canada) were received at 7-8 weeks of age and fed a high fat diet (60% of calories from fat) for 6-8 weeks to induce hyperglycemia and obesity (Surwit et al., 1988). Blood glucose was checked and animals with readings between 200 and 220 mg/dl were included in the study. The animals were randomized based on their body weight and glycemic values, into control and treatment groups (n=6-8). The animals received a single intravenous injection of the test compound one minute prior to the Oral Glucose Tolerance Test (OGTT). The control group received vehicle (saline) alone. Blood samples (one drop) were collected from the tail vein prior to the administration of the test compound and at 5, 10, 20, 30, 60, 90 and 120 minutes post-glucose administration. Whole blood glucose values were determined using a hand-held glucometer (Model OneTouch Ultra, LifeScan). All data are expressed as mean±SEM.
FIG. 2 is an area under the curve (AUC) graph of delta glycemia. It is a representation of the area under the curve of the responses seen during the oral glucose tolerance test challenge. The data are corrected for the baseline blood glucose levels of the individual mice. […] If the area under the curves is integrated, the response can be quantified as represented in the bar graph.

The test system of data set [5] is human islets. Kind of data set: Insulin secretion using human islets. Type of data set: cell-based. Conditions: 12 mM glucose; 10^−13 and 10^−12 M; 30 minutes at 37° C.; FIG. 3. How it is done:
Islets aliquots were supplemented with 1 ml of medium containing 2.2, 12 or 22 mM glucose, or 22 mM glucose with 3-isobutyl-1-methylxanthine (IBMX) as a positive control, in the presence of various concentration of Up3(β-B)U tri-sodium salt, and incubated for 30 minutes at 37° C. in a humidified atmosphere containing 5% CO2. The medium was then collected for determination of insulin level; islets were collected for determination of protein; and insulin secretion was normalized to total protein. Basal insulin secretion was determined by incubating the islets in the presence of buffer containing 2 mM glucose.
Islets were kept in CMRL 1066 medium containing 5.5 mM glucose for 2-3 days and then washed out with medium containing 2.2 mM glucose. Islet aliquots were supplemented with 1 ml of medium containing 2.2, 12 or 22 mM glucose or 22 mM glucose with 3-isobutyl-1-methylxanthine (IBMX), in the presence or absence of the different secretagogues. The experiments were done in triplicate. Islets were incubated for 30 minutes at 37° C. in a humidified atmosphere containing 5% CO2. After incubation, the medium was collected for determination of insulin level. Quantification of insulin was done in duplicate using human insulin ELISA kit (ALPCO). […] Basal insulin secretion was determined by incubating the islets in the presence of buffer with 2 mM glucose. […]

Like-named read-outs stand apart in the source and are kept apart here.

The values that follow come from patent US7368439B2, “Dinucleoside poly(borano)phosphate derivatives and uses thereof” (BAR - ILAN University, priority 2005, dated 2008).

Consider `BP(=O)(OP(=O)(O)OP(=O)(O)OCC1OC(n2cnc3c(N)ncnc32)C(O)C1O)OP(=O)(O)OP(=O)(O)OCC1OC(n2cnc3c(N)ncnc32)C(O)C1O` (stereo not shown) [compound 3, diadenosine penta(borano)phosphate], for which, in data set [1], the deboranation products entry is given as “No deboranation products could be detected”. Moreover, the figures for the decomposition entry in data set [1] and in data set [1] (listed as Ap5(γ-B)A) were “less than 15%” and “less than 10%”, respectively. The “fold less hydrolytically stable compared to Ap3(β-B)A” value in data set [2] (gastric juice conditions) was “about 4 fold”.

With “diadenosine tri(borano)phosphate [compound 1]”, the “calculated hydrolysis rate constant” value in data set [2] was 0.000152 s⁻¹. In addition, the “fold less stable than ATP-α-B analogues” value in data set [2] (under gastric juice conditions) is listed as 2 fold.

Take “diuridine tri(borano)phosphate [compound 2]”: the “insulin secretion versus background” value in data set [3] (1 hour incubation, FIG. 1) is “stimulated insulin secretion above background levels”. The “activity on insulin secretion at low concentrations” value in data set [3] (10^−12 and 10^−11 M, activity dropping as the concentration increased) was “active at low concentrations”. For the same compound, in data set [4] (100 ng/kg intravenous, activity dropping as the concentration decreased), the “activity on glycemia at low concentration” value is “active at low concentration”. In addition, the “effect on the increase of glycemia (delta glycemia, AUC)” value in data set [4] (DIO-mice, intravenous, one minute prior to the glucose challenge, FIG. 2) was “partially inhibited the increase of the glycemia”. Also, the “insulin secretion by human islets” value in data set [5] was “able to promote significant insulin secretion”. For the same compound, the deboranation products entry in data set [1] is recorded as “No deboranation products could be detected”. The “calculated hydrolysis rate constant” value in data set [2] is 0.000165 s⁻¹.
